Results on 7 compounds are retold here after US6229016A, “Method for treating tumors using 2-aryl-naphthyridin-4-ones” (priority 2000, dated 2001).

Assay type in all cases: cell-based
In assay [1] the test system is MDA-MB-435 breast cancer cell line. The experiment in a line: NCI in vitro screen, breast cancer MDA-MB-435. The note with it: Homo sapiens, read-out: Cytotoxicity log GI50 (converted).
The subject of assay [2] is NCI-H460 non-small cell lung cancer cell line. The experiment in a line: NCI in vitro screen, non-small cell lung cancer NCI-H460. The note with it: Homo sapiens, read-out: Cytotoxicity log GI50 (converted).
Assay [3] deals with NCI's 60 human tumor cell line. Kind of assay: NCI 60 human tumor cell line in vitro screen (average / whole panel). The note with it: calculated from all cell lines tested, molar concentrations, read-out: average log GI50 (converted).
In assay [4] the test system is 786-0 renal cancer cell line. Kind of assay: NCI in vitro screen, renal cancer 786-0. The note with it: Homo sapiens, read-out: Cytotoxicity log GI50 (converted). The text has this: (§1) Compounds 41-51 and 53-68 were submitted to NCI and assayed in the NCI's in vitro disease-oriented antitumor screen, which involves determination of a test compound's effects on the growth of approximately 60 human tumor cell lines. See, M. R. Boyd, et al. In Cancer: Principles and Practice of Oncology Updates; De Vita, V. T., Hellman, S., Rosenberg, S. A., Eds; J. B. Lippincoft: Philadelphia, pp 1-12 (1989); and A. Monks, et al. J. Natl. Cancer Inst. 83:757 (1991). These lines include leukemia, non-small cell lung, colon, central nervous system (CNS), melanoma, ovarian, renal, prostate, and breast cancers.
(§2) Compounds 29'-51' were submitted to NCI and assayed in the NCI's in vitro disease-oriented antitumor screen, using the techniques described in Example 5. This assay involves determinations of a test agent's effect on growth parameters against a panel of approximately 60 human tumor cell lines, derived largely from solid tumors, including non-small cell lung, colon, central nervous system, renal, ovarian, prostate, and breast cancers, plus a few leukemia cell lines. The cytotoxic effects of each compound are obtained as GI50 or […] values, which represent the molar drug concentrations required to cause half growth inhibition and total growth inhibition, respectively. The results are expressed for each cell line as average log GI50 values in Table 4, as log GI50 values in Table 5, and as log TGI values and average log TGI values in Table 6.

Assay [5] has as its system HCT-116 colon cancer cell line. Kind of assay: NCI in vitro screen, colon cancer HCT-116. The note with it: Homo sapiens; HCT-1.16 (head); HCT-116 (footnote); read-out: Cytotoxicity log GI50 (converted).
The test system of assay [6] is HL-60(TB) leukemia cell line. Kind of assay: cells. The note with it: Homo sapiens; HL-60(TB); read-out: Cytotoxicity log GI50 (converted).
Assay [7] relates to U-251 CNS cancer cell line. The experiment in a line: NCI in vitro screen, CNS cancer U-251. The note with it: Homo sapiens, read-out: Cytotoxicity log GI50 (converted).
Assay [8] has as its system OVCAR-3 ovarian cancer cell line. The experiment in a line: NCI in vitro screen, ovarian cancer OVCAR-3. The note with it: Homo sapiens, read-out: Cytotoxicity log GI50 (converted).
The test system of assay [9] is SF-295 CNS cancer cell line. Kind of assay: NCI in vitro screen, CNS cancer SF-295. The note with it: Homo sapiens, read-out: Cytotoxicity log GI50 (converted).
The test system of assay [10] is PC-3 prostate cancer cell line. The experiment in a line: NCI in vitro screen, prostate cancer PC-3. The note with it: Homo sapiens, read-out: Cytotoxicity log GI50 (converted).
Source text: as §1, §2

In assay [11] the test system is MDA-N breast cancer cell line. Kind of assay: NCI in vitro screen, breast cancer MDA-N. The note with it: Homo sapiens, read-out: Cytotoxicity log GI50 (converted).
Source text: as §1, §2

Assay [12] deals with SK-MEL-5 melanoma cell line. Kind of assay: NCI in vitro screen, melanoma SK-MEL-5. The note with it: Homo sapiens, read-out: Cytotoxicity log GI50 (converted).
Source text: as §1, §2

For the compound `Cc1cnc2[nH]c(-c3cccc(F)c3)cc(=O)c2c1` [29'], the GI50 in assay [1] was under 10 nM; in [2], 38.9 nM; in assay [3] it was 50.1 nM; in assay [4], 28.2 nM; in assay [5], 24 nM; in [6], 20.4 nM. The GI50 in [7] is 40.7 nM; in [8] it was 13.5 nM; in assay [9], 27.5 nM; in assay [10], 34.7 nM; in assay [11], 11.7 nM; in [12], 28.2 nM.
As to `Cc1ccc2c(=O)cc(-c3cccc(F)c3)[nH]c2n1` [30'], the GI50 in assay [1] was 12.3 nM; in [2], 33.1 nM; in assay [3] it was 42.7 nM; in assay [4] it was 45.7 nM; in [5] it was 28.2 nM; in assay [6], 22.4 nM. Besides, the GI50 is 38 nM in assay [7]; 19.5 nM in [8]; 28.8 nM in [9]; 34.7 nM in [10]; 14.5 nM in assay [11]; 22.4 nM in [12].
As to `Cc1cc(C)c2c(=O)cc(-c3cccc(F)c3)[nH]c2n1` [31'], the GI50 in [1] is under 10 nM; in [2] it was 53.7 nM; in assay [3], 85.1 nM; in assay [4], 35.5 nM; in assay [5], under 10 nM; in assay [6], 37.2 nM. Besides, the GI50 in assay [7] is 64.6 nM; in assay [8], 18.2 nM; in assay [9], 33.1 nM; in [10], 61.7 nM; in assay [11], 12.9 nM; in [12] it was 37.2 nM.
On to `O=c1cc(-c2cccc(Cl)c2)[nH]c2ncccc12` [32'], for which the GI50 is under 10 nM in assay [1]; 87.1 nM in [2]; 229 nM in assay [3]; 56.2 nM in [4]; 28.8 nM in [5]; 10.5 nM in assay [6]. Also, the GI50 was 145 nM in [7]; 45.7 nM in assay [8]; 63.1 nM in [9]; 22.4 nM in [10]; 17.4 nM in assay [11]; 52.5 nM in assay [12].
On to `Cc1cccc(C2=Nc3ncc(C)cc3C(=O)C2)c1` [Compound 39, 2-(3'-Methylphenyl)-6-methyl-1,8-naphthyridin-4-one], for which the GI50 is under 10 nM in [1]; 646 nM in assay [3]; 437 nM in [4]; 407 nM in assay [5]; 174 nM in assay [6]; 170 nM in [7]. The GI50 is 251 nM in assay [8]; 417 nM in assay [9]; 309 nM in [10]; under 10 nM in assay [11]; 288 nM in [12].
In the case of `Cc1cccc(C2=Nc3nc(C)cc(C)c3C(=O)C2)c1` [Compound 41, 2-(3'-Methylphenyl)-5,7-dimethyl-1,8-naphthyridin-4-one], the GI50 in [1] is 20000 nM; in assay [2], 44700 nM; in [4], 56200 nM; in assay [5], 17800 nM; in [6], 12900 nM; in [7], 53700 nM. The GI50 in [8] was 30200 nM; in [9] it was 64600 nM; in assay [10], 31600 nM; in assay [11] it was 20900 nM; in assay [12] it was 34700 nM.
With `O=C1CC(c2cccc3ccccc23)=Nc2ncccc21` [Compound 42, 2-(α-Naphthyl)-1,8-naphthyridin-4-one], the 50% growth inhibitory concentration (GI50) in assay [1] was under 10 nM; in assay [2] it was 38.9 nM; in assay [4], 15.1 nM; in assay [5], under 10 nM; in [6], under 10 nM; in assay [7], 10.2 nM. Besides, the GI50 is under 10 nM in assay [8]; under 10 nM in assay [9]; 17.8 nM in assay [10]; under 10 nM in assay [11]; under 10 nM in [12].
